Here are results for 4 molecules from patent US20050222234A1, “Mucin production inhibitor” (TAIHO PHARMACEUTICAL CO., LTD., priority 2004, published 2005).

In one assay the test system is NCI-H292 cells. As to the kind of experiment: Mucin production inhibitory action (EGF-stimulated, mucin ELISA of culture supernatant). The assay is classed as cell-based, human. As to conditions: for Effect on production of mucin (in words): 1-10 μM, EGF-stimulated NCI-H292 cells. On the procedure:
Mucin Production Inhibitory Action
The test was carried out in accordance with a partially modified method of Takeyama et al. (Proc. Natl. Acad. Sci. USA, Vol. 96, P. 3081-3086, 1999). The specific procedure will be described as follows. NCI-H292 cells, which are human respiratory tract epithelial cell lines, were suspended in a 10% FCS-containing RPMI 1640-culture medium, and disseminated to a 12-well culture plate so that the cell concentration of each well was adjusted to 2×10^5 cell/well, followed by culturing for two days. Subsequently, the culture medium was changed to a 0.2% FCS-containing RPMI culture medium, followed by culturing for another two days. The thus-cultured cells were employed in the test. Each test drug and EGF (25 ng/mL) were added to each well, and the mucin level of the supernatant of the culture 48 hours after initiation of culturing was determined through the ELISA method. Percent inhibition (%) with regard to control value was calculated by supposing the difference produced by subtracting normal value from control value to be 100%. In this case, the control value is defined as the mucin amount in the culture supernatant to which only EGF was added, while the normal value is defined as the muchin amount in the culture supernatant containing neither of test drug and EGF. In addition, cilomilast (J. Pharmacol. Exp. Ther., Vol. 284, p. 420-426, 1998) and roflumilast (J. Pharmacol. Exp. Ther., Vol. 297, p. 267-279, 2001), which are typical phosphodiesterase (IV) inhibitors were also tested in a similar manner.

A further assay has as its system Lewis Wistar rats. In words: Inhibitory effect on hyperplasia of goblet cells in the respiratory tract epithelium (Sephadex-induced, PAS staining). The format is in vivo, rat. The settings on record: oral, once per day for seven days; Sephadex i.v.; ratio of PAS-positive area. On the procedure: (Welch test), the value in each parenthesis represents percent inhibition (%)
The test was carried out in accordance with a partially modified method of Matsubara et al. (Int. Arch. Allergy Immunol., Vol. 116, p. 67-75, 1998). The specific procedure will be described as follows. To each of the 7-week old male Lewis Wistar rats, a Sephadex suspension (0.1. mg/mL/head) was intravenously administered (total three times: day 0, 2, and 5). Two days after the final administration, the rat was slaughtered by exsanguination under anesthetic with pentobarbital. The lung-tissue was extirpated from the rat and immersed in a neutral formalin buffer for fixation. […] The ratio of the PAS-stained positive area to the respiratory tract epithelium was calculated by use of an image analysis software (Winroof). Each test compound was suspended in 0.5% hydroxypropylmethyl cellulose (HPMC), and the suspension-was orally administered once per day for continuous seven days from the start of administration of Sephadex. In the Figure, numerical data are represented by mean value±standard deviation (each group: 11-12 samples).

Molecules are shown by their SMILES.

As for `COc1ccc([C@]2(C#N)CC[C@@H](C(=O)O)CC2)cc1OC1CCCC1` [Cilomilast, cilomilast, reference compound], the “Effect on production of mucin (in words)” value with NCI-H292 cells is recorded as “promoted production of mucin”.
In the case of `COc1ccc(-c2nc3cc(-n4cncn4)ccc3[nH]2)cc1OCC1CC1` [Compound 1], the “Effect on hyperplasia of goblet cells (in words, FIG. 1)” value with Lewis Wistar rats is given as “inhibitory effect”.
Regarding `CCC(CC)Oc1cc(-c2nc3cc(-n4cncn4)ccc3[nH]2)ccc1OC` [Compound 5], the inhibition at 1 µM in the assay with NCI-H292 cells (Homo sapiens, NCI-H292, 1 μM test drug, EGF 25 ng/mL, supernatant after 48 hours, read-out: Percent inhibition of mucin production (%)) was found to be 15.4%. Besides, the inhibition at 3 µM with NCI-H292 cells (Homo sapiens, NCI-H292, 3 μM test drug, EGF 25 ng/mL, supernatant after 48 hours, read-out: Percent inhibition of mucin production (%)) worked out at 40.2%. Also, the inhibition at 10 µM in the assay on NCI-H292 cells (Homo sapiens, NCI-H292, 10 μM test drug, EGF 25 ng/mL, supernatant after 48 hours, read-out: Percent inhibition of mucin production (%)) was 65.9%.
Regarding `O=C(Nc1c(Cl)cncc1Cl)c1ccc(OC(F)F)c(OCC2CC2)c1` [Roflumilast, roflumilast, reference compound], the “Effect on production of mucin (in words)” value in the assay with NCI-H292 cells was “promoted production of mucin”.
